The structures appear in SMILES notation.

For data set [1] the following is noted: human, serum, 4383 h.
For data set [2] the following is noted: human.
The conditions of data set [3]: human. This is another data set of the same source.
The conditions of data set [4]: human. The source holds these as a separate data set.
For data set [5] the following is noted: human. The source holds these as a separate data set.
For data set [6] the following is noted: human. The source holds these as a separate data set.
For data set [7] the following is noted: human, serum.
The nature of data set [8]: Times to onset, minimal and maximal, observed in the indexed observations. [column 'DELAI' in source]. The note with it: human.
Data set [9] in a line: Highest frequency of moderate liver toxicity observed during clinical trials, expressed as a percentage. [column '% BIOL' in source]. The note with it: human.
For data set [10] the following is noted: human. This is another data set of the same source.
For data set [11] the following is noted: human. The source holds these as a separate data set.
For data set [12] the following is noted: human. This is another data set of the same source.
Data set [13] in a line: Highest frequency of acute liver toxicity observed during clinical trials, expressed as a percentage. [column '% AIGUE' in source]. The note with it: human.
For data set [14] the following is noted: human. This is another data set of the same source.
For data set [15] the following is noted: human, serum. This is another data set of the same source.
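For Hepatotoxicity (association with vascular disease) in this document: count of indexed literature references reporting vascular liver injury in humans, e.g. peliosis hepatitis, hepatic veno-occlusive disease or Budd-Chiari syndrome.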
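For Hepatotoxicity (benign tumour) in this document: value is a count of indexed literature references citing a benign tumour confirmed by histopathology.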
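For Hepatotoxicity (choleostasis) in this document: human cholestatic liver injury, shown by histopathology or by peak ALT or AST elevation over alkaline phosphatase ratio below 2, value counts indexed literature reports.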
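For Hepatotoxicity (chronic liver disease) in this document: chronic liver injury confirmed by histopathology or persistently raised serum aminotransferase activity beyond 6 months, value given as the count of indexed literature references.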
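For Hepatotoxicity (cirrhosis) in this document: value is a count of indexed literature references reporting cirrhosis confirmed by histopathology.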
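For Hepatotoxicity (cytolytic) in this document: human cytolytic liver injury, shown by histopathology or by a ratio above 5 of peak ALT or AST elevation to alkaline phosphatase elevation, value counts indexed references.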
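For Hepatotoxicity (granulomatous hepatitis) in this document: value is a count of indexed literature references reporting granulomatous liver disease confirmed by histopathology.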
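For Hepatotoxicity (malignant tumour) in this document: malignant tumour confirmed by histopathology, value gives the count of indexed literature references reporting it.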
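For Hepatotoxicity (severe hepatitis) in this document: human clinical data: severe hepatitis, meaning potentially life-threatening liver failure or clinically observed cases, the value counts how many indexed literature references report it.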
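For Hepatotoxicity (steatosis) in this document: steatosis confirmed by histopathology, value is the count of indexed references.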

Consider `COCC(=O)Nc1c(I)c(C(=O)NCC(O)CO)c(I)c(C(=O)N(C)CC(O)CO)c1I` (stereo not given) [IOPROMIDE], for which, in data set [1], the “Hepatotoxicity (chronic liver disease)” value is recorded as 0. The “Hepatotoxicity (malignant tumour)” value in data set [2] is listed as 0. For the same molecule, in data set [3], the “Hepatotoxicity (severe hepatitis)” value came out at 0. In addition, in data set [4], the “Hepatotoxicity (cirrhosis)” value amounted to 0. Also, the “Hepatotoxicity (association with vascular disease)” value in data set [5] was determined as 0. Further, in [6], the “Hepatotoxicity (benign tumour)” value amounted to 0. Further, the “Hepatotoxicity (moderate)” value is 0 in data set [7] and 0% in data set [9]. In addition, in data set [8], the “Hepatotoxicity (time to onset)” value was under 1 days. Also, the “Hepatotoxicity (cytolytic)” value in [10] is reported as 1. Also, the “Hepatotoxicity (choleostasis)” value in [11] was 0. The “Hepatotoxicity (granulomatous hepatitis)” value in [12] is reported as 0. For the same molecule, the “Hepatotoxicity (acute)” value in [13] is 0%; in [15], 1. Moreover, the “Hepatotoxicity (steatosis)” value in [14] is given as 0.
On to `CCN(CC)CCN1C(=O)CN=C(c2ccccc2F)c2cc(Cl)ccc21` [FLURAZEPAM], for which the “Hepatotoxicity (chronic liver disease)” value in data set [1] is 0. Besides, the “Hepatotoxicity (malignant tumour)” value in [2] was 0. Also, in data set [3], the “Hepatotoxicity (severe hepatitis)” value was 0. In addition, the “Hepatotoxicity (cirrhosis)” value in data set [4] is given as 0. For the same molecule, the “Hepatotoxicity (association with vascular disease)” value in data set [5] is recorded as 0. Also, in data set [6], the “Hepatotoxicity (benign tumour)” value is 0. For the same molecule, the “Hepatotoxicity (moderate)” value in data set [7] came out at 0; in data set [9] it was 0%. Further, in data set [8], the “Hepatotoxicity (time to onset)” value worked out at 2 weeks - 6 months. Besides, the “Hepatotoxicity (cytolytic)” value in data set [10] was determined as 0. Also, the “Hepatotoxicity (choleostasis)” value in data set [11] is reported as 3. Further, the “Hepatotoxicity (granulomatous hepatitis)” value in [12] turned out to be 0. Besides, the “Hepatotoxicity (acute)” value in data set [13] turned out to be 0%; in data set [15], 3. Also, the “Hepatotoxicity (steatosis)” value in data set [14] was 1.
Consider `CC(=O)[C@H]1CC[C@H]2[C@@H]3CC[C@@H]4C[C@H](O)CC[C@]4(C)[C@H]3CC[C@]12C` [ELTANOLONE], for which the “Hepatotoxicity (chronic liver disease)” value in data set [1] was 0. In addition, the “Hepatotoxicity (malignant tumour)” value in data set [2] is given as 0. For the same molecule, in data set [3], the “Hepatotoxicity (severe hepatitis)” value came out at 0. Besides, the “Hepatotoxicity (cirrhosis)” value in data set [4] came out at 0. Besides, the “Hepatotoxicity (association with vascular disease)” value in [5] was found to be 0. For the same molecule, the “Hepatotoxicity (benign tumour)” value in data set [6] worked out at 0. Besides, the entries for the “Hepatotoxicity (moderate)” value in data set [7] and in data set [9] were 2 and 12.6%, respectively. In addition, the “Hepatotoxicity (time to onset)” value in data set [8] was determined as 1 days. Also, in data set [10], the “Hepatotoxicity (cytolytic)” value is recorded as 0. For the same molecule, in [11], the “Hepatotoxicity (choleostasis)” value was 0. Moreover, the “Hepatotoxicity (granulomatous hepatitis)” value in data set [12] was 0. The “Hepatotoxicity (acute)” value worked out at 0% in [13] and 0 in [15]. The “Hepatotoxicity (steatosis)” value in data set [14] is given as 0.
As for `C=C1c2cccc(O)c2C(=O)C2=C(O)[C@]3(O)C(=O)C(C(N)=O)=C(O)[C@@H](N(C)C)[C@@H]3[C@@H](O)[C@H]12` [METHACYCLINE], the “Hepatotoxicity (chronic liver disease)” value in data set [1] is 0. The “Hepatotoxicity (malignant tumour)” value in [2] is 0. For the same molecule, the “Hepatotoxicity (severe hepatitis)” value in data set [3] is on record as 0. Also, the “Hepatotoxicity (cirrhosis)” value in [4] came out at 0. For the same molecule, the “Hepatotoxicity (association with vascular disease)” value in data set [5] amounted to 0. Also, in [6], the “Hepatotoxicity (benign tumour)” value came to 0. Moreover, the “Hepatotoxicity (moderate)” value came to 0 in [7] and 0% in data set [9]. Also, the “Hepatotoxicity (time to onset)” value in data set [8] worked out at 7 months - 1 year. In data set [10], the “Hepatotoxicity (cytolytic)” value is listed as 1. Also, the “Hepatotoxicity (choleostasis)” value in data set [11] is reported as 0. The “Hepatotoxicity (granulomatous hepatitis)” value in data set [12] is listed as 0. In addition, the “Hepatotoxicity (acute)” value came out at 0% in [13] and 1 in [15]. Besides, the “Hepatotoxicity (steatosis)” value in data set [14] turned out to be 0.
For `O=c1[nH]c2ccccc2n1C1CCN(CCCC(c2ccc(F)cc2)c2ccc(F)cc2)CC1` [PIMOZIDE], the “Hepatotoxicity (chronic liver disease)” value in data set [1] is reported as 0. Further, the “Hepatotoxicity (malignant tumour)” value in [2] is recorded as 0. In data set [3], the “Hepatotoxicity (severe hepatitis)” value stood at 0. In addition, the “Hepatotoxicity (cirrhosis)” value in data set [4] came out at 0. The “Hepatotoxicity (association with vascular disease)” value in data set [5] is 0. Further, the “Hepatotoxicity (benign tumour)” value in data set [6] is listed as 0. The “Hepatotoxicity (moderate)” value was 2 in [7] and 0% in data set [9]. Besides, in [8], the “Hepatotoxicity (time to onset)” value is listed as 3 days. For the same molecule, in data set [10], the “Hepatotoxicity (cytolytic)” value is 0. The “Hepatotoxicity (choleostasis)” value in [11] was 0. Also, in [12], the “Hepatotoxicity (granulomatous hepatitis)” value amounted to 0. The entries for the “Hepatotoxicity (acute)” value in data set [13] and in data set [15] were 0% and 0, respectively. Further, in data set [14], the “Hepatotoxicity (steatosis)” value is reported as 0.
Regarding `OCCN1CCN(CCCN2c3ccccc3C=Cc3ccccc32)CC1` [OPIPRAMOL], the “Hepatotoxicity (chronic liver disease)” value in data set [1] is reported as 0. Further, in data set [2], the “Hepatotoxicity (malignant tumour)” value was found to be 0. In [3], the “Hepatotoxicity (severe hepatitis)” value came to 1. For the same molecule, the “Hepatotoxicity (cirrhosis)” value in data set [4] stood at 0. The “Hepatotoxicity (association with vascular disease)” value in [5] is reported as 0. Also, the “Hepatotoxicity (benign tumour)” value in data set [6] came out at 0. The “Hepatotoxicity (moderate)” value in data set [7] is given as 0; in data set [9], 0%. The “Hepatotoxicity (time to onset)” value in [8] is 11 days - 11 weeks. For the same molecule, the “Hepatotoxicity (cytolytic)” value in [10] worked out at 2. In addition, the “Hepatotoxicity (choleostasis)” value in data set [11] was found to be 0. Also, the “Hepatotoxicity (granulomatous hepatitis)” value in [12] came out at 0. Further, the “Hepatotoxicity (acute)” value in data set [13] is 0%; in data set [15], 2. Further, the “Hepatotoxicity (steatosis)” value in data set [14] came out at 0.
Take `CC(=O)CCCCn1c(=O)c2c(ncn2C)n(C)c1=O` [PENTOXIFYLLINE]: in data set [1], the “Hepatotoxicity (chronic liver disease)” value is given as 0. Also, the “Hepatotoxicity (malignant tumour)” value in [2] worked out at 0. The “Hepatotoxicity (severe hepatitis)” value in data set [3] is on record as 0. The “Hepatotoxicity (cirrhosis)” value in [4] turned out to be 0. For the same molecule, the “Hepatotoxicity (association with vascular disease)” value in data set [5] was determined as 0. Further, in data set [6], the “Hepatotoxicity (benign tumour)” value is recorded as 0. For the same molecule, the results for the “Hepatotoxicity (moderate)” value in data set [7] and in [9] were 0 and 0%, respectively. In addition, in data set [8], the “Hepatotoxicity (time to onset)” value came out at 3 weeks. The “Hepatotoxicity (cytolytic)” value in data set [10] came to 0. Moreover, in data set [11], the “Hepatotoxicity (choleostasis)” value is recorded as 2. Further, in data set [12], the “Hepatotoxicity (granulomatous hepatitis)” value came to 0. Also, the “Hepatotoxicity (acute)” value in data set [13] was found to be 0%; in data set [15], 2. For the same molecule, in [14], the “Hepatotoxicity (steatosis)” value came to 0.
For the molecule `CC(=O)Nc1ccc(/C=N/NC(N)=S)cc1` [AMITHIOZONE], the “Hepatotoxicity (chronic liver disease)” value in [1] is on record as 0. Moreover, the “Hepatotoxicity (malignant tumour)” value in data set [2] is listed as 0. Moreover, the “Hepatotoxicity (severe hepatitis)” value in [3] is given as 2. The “Hepatotoxicity (cirrhosis)” value in data set [4] was found to be 1. Further, the “Hepatotoxicity (association with vascular disease)” value in data set [5] came out at 0. The “Hepatotoxicity (benign tumour)” value in [6] is 0. In addition, the figures for the “Hepatotoxicity (moderate)” value in [7] and in [9] were 4 and 18%, respectively. Also, in data set [8], the “Hepatotoxicity (time to onset)” value was 1.5 months - 6 months. Also, the “Hepatotoxicity (cytolytic)” value in data set [10] came to 5. Further, the “Hepatotoxicity (choleostasis)” value in data set [11] is listed as 2. Also, the “Hepatotoxicity (granulomatous hepatitis)” value in data set [12] is 0. The “Hepatotoxicity (acute)” value in [13] was 2.5%; in data set [15], 6. Also, in data set [14], the “Hepatotoxicity (steatosis)” value was 2.
In the case of `CC(=O)[C@H]1CC[C@H]2[C@@H]3CC[C@H]4C[C@H](O)CC[C@]4(C)[C@H]3C(=O)C[C@]12C.C[C@]12CC[C@@H](O)C[C@@H]1CC[C@H]1[C@@H]3CC[C@H](C(=O)CO)[C@@]3(C)CC(=O)[C@@H]12`, in data set [1], the “Hepatotoxicity (chronic liver disease)” value is 0. Further, the “Hepatotoxicity (malignant tumour)” value in data set [2] worked out at 0. The “Hepatotoxicity (severe hepatitis)” value in [3] turned out to be 0. The “Hepatotoxicity (cirrhosis)” value in data set [4] is on record as 0. The “Hepatotoxicity (association with vascular disease)” value in [5] worked out at 0. For the same molecule, in data set [6], the “Hepatotoxicity (benign tumour)” value is 0. For the same molecule, the “Hepatotoxicity (moderate)” value is 1 in data set [7] and 15% in [9]. Also, the “Hepatotoxicity (time to onset)” value in data set [8] came out at 3 days - 5 days. Besides, the “Hepatotoxicity (cytolytic)” value in [10] came out at 0. In [11], the “Hepatotoxicity (choleostasis)” value worked out at 0. Further, the “Hepatotoxicity (granulomatous hepatitis)” value in data set [12] is listed as 0. Moreover, the “Hepatotoxicity (acute)” value in data set [13] came out at 0%; in data set [15], 0. Also, the “Hepatotoxicity (steatosis)” value in [14] was 0.
On to `O=C(Oc1ccccc1C(=O)O)c1ccccc1O` [SALSALATE], for which the “Hepatotoxicity (chronic liver disease)” value in data set [1] stood at 0. Also, the “Hepatotoxicity (malignant tumour)” value in data set [2] came out at 0. Moreover, the “Hepatotoxicity (severe hepatitis)” value in data set [3] was 0. Also, in data set [4], the “Hepatotoxicity (cirrhosis)” value was found to be 0. In addition, the “Hepatotoxicity (association with vascular disease)” value in [5] is on record as 0. In data set [6], the “Hepatotoxicity (benign tumour)” value amounted to 0. Also, the “Hepatotoxicity (moderate)” value in data set [7] is given as 1; in data set [9], 15%. Also, the “Hepatotoxicity (time to onset)” value in data set [8] amounted to 1 day - 2 weeks. For the same molecule, in [10], the “Hepatotoxicity (cytolytic)” value is given as 2. In [11], the “Hepatotoxicity (choleostasis)” value came out at 0. Also, the “Hepatotoxicity (granulomatous hepatitis)” value in data set [12] is on record as 0. Besides, the figures for the “Hepatotoxicity (acute)” value in data set [13] and in data set [15] were 5% and 2, respectively. Moreover, the “Hepatotoxicity (steatosis)” value in [14] came out at 0.
As to `OCCN1CCN(CCCN2c3ccccc3Sc3ccc(Cl)cc32)CC1` [PERPHENAZINE], in [1], the “Hepatotoxicity (chronic liver disease)” value is 0. Also, the “Hepatotoxicity (malignant tumour)” value in data set [2] is on record as 0. For the same molecule, the “Hepatotoxicity (severe hepatitis)” value in data set [3] amounted to 0. Also, in data set [4], the “Hepatotoxicity (cirrhosis)” value is on record as 0. Further, the “Hepatotoxicity (association with vascular disease)” value in data set [5] is on record as 0. Further, in [6], the “Hepatotoxicity (benign tumour)” value is 0. The “Hepatotoxicity (moderate)” value turned out to be 2 in data set [7] and 23.4% in data set [9]. The “Hepatotoxicity (time to onset)” value in [8] is 2 months. The “Hepatotoxicity (cytolytic)” value in data set [10] stood at 1. Besides, the “Hepatotoxicity (choleostasis)” value in [11] is on record as 4. For the same molecule, in data set [12], the “Hepatotoxicity (granulomatous hepatitis)” value stood at 0. In addition, the “Hepatotoxicity (acute)” value was 0.3% in [13] and 5 in [15]. In data set [14], the “Hepatotoxicity (steatosis)” value was 0.
